Measurements published in patent US8048898B2, “Inhibitor of binding of S1P1” (Taisho Pharmaceutical Co., Ltd, priority 2007, dated 2011).

Molecular target: T1, human Edg-1(S1P1) (Homo sapiens, UniProt P21453)
T1 construct: expressed in transfected cells; host or cells: HEK-293
Test: S1P1 Binding Test ([33P]-S1P, membrane fraction of HEK-293 cell line carrying the human Edg-1(S1P1) gene)
Conditions: [33P]-S1P 0.1 nM; for inhibition at 10 µM: compound at 10 μM, 30° C., 1 hour, read-out: inhibition rate of Edg-1(S1P1) binding; for IC50: membrane binding test at various concentrations, read-out: IC50 value, Edg-1(S1P1) binding inhibition
Protocol: The membrane fraction of a HEK-293 cell line carrying the human Edg-1(S1P1) gene was used to study the compounds of the present invention for their inhibitory effect on Edg-1(S1P1) binding, as described in Science. […] To obtain the membrane fraction, treatment with solubilizing buffer (1 mM Tris/HCl, pH 7.2) for 10 minutes on ice was performed, followed by centrifugation at 1000×g for 5 minutes to remove an insoluble fraction and then at 40000×g for 30 minutes at 4° C. The resulting membrane fraction was dissolved in binding buffer (20 mM Tris-HCl, pH 7.4, 100 mM NaCl, 15 mM NaF, 2 mM deoxypyridoxine, 4 mg/mL fatty acid-free BSA), followed by addition of binding buffer containing [^33P]-S1P (ARC, final concentration: 0.1 nM) and DMSO solution of a test compound (final concentration of the compound: 10^−5 M, final concentration of DMSO: 0.1%). After stirring, the reaction solution was incubated at 30° C. for 1 hour. The membrane fraction was collected onto a unifilter-96 GF/C filter (Perkin Elmer) using a harvester and washed four times with binding buffer, followed by drying the filter. After addition of 25 μL Microscint 0 (Perkin Elmer), radioactivity was measured with a Top Count NXT (Packard) to calculate amount (A), i.e., the amount of [^33P]-S1P binding to the membrane fraction in the presence of the compound.
The same procedure was performed in the absence of any test compound to calculate amount (B), i.e., the amount of [^33P]-S1P binding. Moreover, the same procedure was also performed with HEK-293 cells carrying no Edg-1(S1P1) gene in the absence of any test compound to calculate amount (C), i.e., the amount of background [^33P]-S1P binding.
The inhibition rate of Edg-1(S1P1) binding was calculated for each compound by the following equation. Inhibition rate (%)=[1−(A−C)/(B−C)]×100
Moreover, the activity of each test compound was calculated as a value (IC50 value) showing 50% of the radioactivity obtained in the absence of any test compound. Namely, the above membrane system binding test was performed in the presence of a test compound at various concentrations to calculate an IC50 value according to the dose-dependent inhibition curve analyzed with data analysis software, Origin (Lightstone Corp., Japan).

T1 sequence (P21453 whole entry): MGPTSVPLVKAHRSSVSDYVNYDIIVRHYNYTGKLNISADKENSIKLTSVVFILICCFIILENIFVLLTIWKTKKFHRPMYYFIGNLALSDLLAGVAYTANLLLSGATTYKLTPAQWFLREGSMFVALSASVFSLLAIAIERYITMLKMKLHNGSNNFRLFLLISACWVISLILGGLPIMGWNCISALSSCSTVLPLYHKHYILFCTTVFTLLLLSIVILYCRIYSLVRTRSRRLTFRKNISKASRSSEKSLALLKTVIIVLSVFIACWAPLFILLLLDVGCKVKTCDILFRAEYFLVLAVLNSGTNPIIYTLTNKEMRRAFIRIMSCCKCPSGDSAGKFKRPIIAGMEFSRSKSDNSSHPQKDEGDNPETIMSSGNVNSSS

Row | SMILES | inhibition at 10 µM | IC50
1 | CC(NS(=O)(=O)c1ccc2c(Cl)cccc2c1)c1ccnc(Oc2cccc(N3CCN(C)CC3)c2)c1 (centres unmarked) [Compound 9] | ≥ 3% | –
2 | CCc1c(C(C)NS(=O)(=O)c2ccc(Cl)c(Cl)c2)ccnc1Oc1cccc(N(C)C)c1 (centres unmarked) [Compound 22] | ≥ 3% | ≤ 0.2 µM
3 | CCc1c(C(C)NS(=O)(=O)c2ccc(Cl)cc2)ccnc1Oc1cccc(N2CCOCC2)c1 (centres unmarked) [Compound 41] | ≥ 3% | –
4 | CCc1c(Oc2cccc(N3CCN(C)CC3)c2)ccnc1C(C)NS(=O)(=O)c1ccc(Cl)c(Cl)c1 (centres unmarked) [Compound 5] | ≥ 3% | –
5 | CCc1c(C(C)NS(=O)(=O)c2ccc3c(Cl)cccc3c2)ccnc1Oc1cccc(N2CCN(C)CC2)c1 (centres unmarked) [Compound 31] | ≥ 3% | 0.035 µM
6 | CCc1c(C(CC)NS(=O)(=O)c2ccc(Cl)c(Cl)c2)ccnc1Oc1cccc(N2CCN(C)CC2)c1 (centres unmarked) [Compound 12] | ≥ 3% | –
7 | CCc1c(CNS(=O)(=O)c2ccc(Cl)c(Cl)c2)ccnc1Oc1cccc(N2CCN(C)CC2)c1 [Compound 14] | ≥ 3% | –
8 | CCc1c(Oc2ccc(C)cc2)nc(C)nc1C(C)NS(=O)(=O)c1ccc(Cl)c(Cl)c1 (centres unmarked) [Compound 1] | ≥ 3% | –
9 | CCc1c(Oc2ccc(C)cc2)nc(C)nc1C(C)NS(=O)(=O)c1ccc2c(Cl)cccc2c1 (centres unmarked) [Compound 2] | ≥ 3% | –
10 | CCc1c(C(C)NS(=O)(=O)c2ccc3c(Cl)cccc3c2)ccnc1Oc1cccc(N2CCOCC2)c1 (centres unmarked) [Compound 27, 5-Chloronaphthalene-2-sulfonic acid {1-[3-ethyl-2-(3-morpholin-4-yl-phenoxy)-pyridin-4-yl]-ethyl}-amide] | ≥ 3% | 0.051 µM
11 | CCc1c(C(C)NS(=O)(=O)c2ccc(Cl)c(Cl)c2)ccnc1Oc1cccc(N2CCOCC2)c1 (centres unmarked) [Compound 19] | ≥ 3% | 0.066 µM
12 | CCc1ccc(S(=O)(=O)NC(C)c2ccnc(Oc3cccc(N4CCOCC4)c3)c2CC)cc1 (centres unmarked) [Compound 35] | ≥ 3% | –
13 | CCCc1c(C(C)NS(=O)(=O)c2ccc(Cl)c(Cl)c2)ccnc1Oc1cccc(N2CCN(C)CC2)c1 (centres unmarked) [Compound 10] | ≥ 3% | –
14 | CCc1c([C@H](C)NS(=O)(=O)c2ccc(Cl)c(Cl)c2)ccnc1Oc1cccc(N2CCN(C)CC2)c1 [Compound 29, (S)-3,4-Dichloro-N-(1-{3-ethyl-2-[3-(4-methyl-piperazin-1-yl)-phenoxy]-pyridin-4-yl}-ethyl)-benzenesulfonamide] | ≥ 3% | –
15 | CCc1c(C(C)NS(=O)(=O)c2ccc(Cl)c(Cl)c2)ccnc1Oc1ccc2ccccc2c1 (centres unmarked) [Compound 21] | ≥ 3% | –
16 | CCc1c([C@@H](C)NS(=O)(=O)c2ccc(Cl)c(Cl)c2)ccnc1Oc1cccc(N2CCN(C)CC2)c1 [Compound 28, (R)-3,4-Dichloro-N-(1-{3-ethyl-2-[3-(4-methyl-piperazin-1-yl)-phenoxy]-pyridin-4-yl}-ethyl)-benzenesulfonamide] | ≥ 3% | 0.049 µM
17 | CCc1c(C(C)NS(=O)(=O)c2ccc(Cl)c(Cl)c2)ccnc1OCc1ccccc1 (centres unmarked) [Compound 25] | ≥ 3% | –
18 | CCc1c(C(C)NS(=O)(=O)c2ccc(Cl)c(Cl)c2)ccnc1OC1CCC1 (centres unmarked) [Compound 30] | ≥ 3% | –
19 | CCc1c(C(C)NS(=O)(=O)c2ccccc2)ccnc1Oc1cccc(N2CCOCC2)c1 (centres unmarked) [Compound 32] | ≥ 3% | –
20 | CCc1c(C(C)NS(=O)(=O)c2cccc(Br)c2)ccnc1Oc1cccc(N2CCOCC2)c1 (centres unmarked) [Compound 42] | ≥ 3% | –
21 | CCc1c(C(C)NS(=O)(=O)c2ccc(Cl)c(Cl)c2)ccnc1Oc1cccc(N2CCN(C)CC2)c1 (centres unmarked) [Compound 3, 3,4-Dichloro-N-(1-{3-ethyl-2-[3-(4-methyl-piperazin-1-yl)-phenoxy]-pyridin-4-yl}-ethyl)-benzenesulfonamide] | ≥ 3% | 0.107 µM
22 | CCc1c(C(C)NS(=O)(=O)c2ccc(C(F)(F)F)cc2)ccnc1Oc1cccc(N2CCOCC2)c1 (centres unmarked) [Compound 37] | ≥ 3% | –
23 | Cc1c(C(C)NS(=O)(=O)c2ccc3c(Cl)cccc3c2)ccnc1Oc1cccc(N2CCN(C)CC2)c1 (centres unmarked) [Compound 7] | ≥ 3% | ≤ 0.2 µM

The remaining lines, values ahead:

Row | inhibition at 10 µM | IC50 | SMILES
24 | ≥ 3% | – | CCc1c(C(C)NS(=O)(=O)c2ccc(Cl)cc2Cl)ccnc1Oc1cccc(N2CCOCC2)c1 (centres unmarked) [Compound 56]
25 | ≥ 3% | – | CCc1c(C(C)NS(=O)(=O)c2ccc3c(Cl)cccc3c2)ccnc1S(=O)(=O)c1ccc(C)cc1 (centres unmarked) [Compound 59, 5-Chloronaphthalene-2-sulfonic acid {1-[3-ethyl-2-(toluene-4-sulfonyl)-pyridin-4-yl]-ethyl}-amide]
26 | ≥ 3% | – | CCc1c(C(C)NS(=O)(=O)c2ccc(C(C)=O)cc2)ccnc1Oc1cccc(N2CCOCC2)c1 (centres unmarked) [Compound 44]
27 | ≥ 3% | – | CCc1c(C(C)NS(=O)(=O)c2ccc3ncccc3c2)ccnc1Oc1cccc(N2CCOCC2)c1 (centres unmarked) [Compound 50]
28 | ≥ 3% | ≤ 0.2 µM | CCc1c(C(C)NS(=O)(=O)c2ccc3c(Cl)ccc(Cl)c3c2)ccnc1Oc1cccc(N2CCOCC2)c1 (centres unmarked) [Compound 57]
29 | ≥ 3% | 0.063 µM | CCc1c(C(C)NS(=O)(=O)c2ccc(Cl)c(Cl)c2Cl)ccnc1Oc1cccc(N2CCOCC2)c1 (centres unmarked) [Compound 48]
30 | ≥ 3% | 0.126 µM | CCc1c(C(C)NS(=O)(=O)c2ccc3c(c2)N=S=N3)ccnc1Oc1cccc(N2CCOCC2)c1 (centres unmarked) [Compound 55]
31 | ≥ 3% | – | CCc1c(C(C)NS(=O)(=O)c2ccc(C)c(Cl)c2)ccnc1Oc1cccc(N2CCOCC2)c1 (centres unmarked) [Compound 46]
32 | ≥ 3% | – | CCc1c(C(C)NS(=O)(=O)c2ccc(Br)s2)ccnc1Oc1cccc(N2CCOCC2)c1 (centres unmarked) [Compound 47]
33 | ≥ 3% | 0.033 µM | CCc1c(C(C)NS(=O)(=O)c2ccc3c(Cl)cccc3c2)ccnc1Sc1cccc(N2CCN(C)CC2)c1 (single isomer, unassigned) [Compound 61]
34 | ≥ 3% | – | CCc1c(C(C)NS(=O)(=O)c2ccccc2F)ccnc1Oc1cccc(N2CCOCC2)c1 (centres unmarked) [Compound 43]
35 | ≥ 3% | – | CCc1c(C(C)NS(=O)(=O)c2ccc3c(Cl)cccc3c2)ccnc1Sc1ccc(C)cc1 (centres unmarked) [Compound 58, 5-Chloronaphthalene-2-sulfonic acid [1-(3-ethyl-2-p-toluylsulfanyl-pyridin-4-yl)-ethyl]-amide]
36 | ≥ 3% | – | CCc1c(C(C)NS(=O)(=O)c2ccc3c(c2)CCO3)ccnc1Oc1cccc(N2CCOCC2)c1 (centres unmarked) [Compound 54]
